{"source": "patent US5693815A", "about": "“Peptides” (Schering Corporation, priority 1995, dated 1997)", "molecular_target": "HIV-1 protease (Human immunodeficiency virus type 1 group M subtype B, UniProt P04585)", "assay": "Inhibition of proteolytic activity of HIV-1 protease, Test 1 (method of Louis et al.)", "type": "biochemical", "source_text": "TEST 1--INHIBITION OF PROTEOLYTIC ACTIVITY OF HIV-1-PROTEASE\nThe ability of compounds of the invention to inhibit the proteolytic activity of HIV-1 protease can be determined by using the method of Louis, et al., Biochem. Biophys. Res. Comm. 159:87-94, (1989), which is herein incorporated by reference. In using the method of Louis et al., HIV Substrate III, His-Lys-Ala-Arg-Val-Leu-pNO2 Phe-Glu-Ala-Nle-Ser-NH2 purchased from Bachem Bioscience, Inc. Philadelphia, Pa. can be used in place of the nonapeptide substrate […]amide."}
{"smiles": "CC(C)(C)NC(=O)c1ccccc1SCC(O)C(Cc1ccccc1)NC(=O)C1CC2CCCCC2N1C(=O)OC(C)(C)C", "note": "(stereo not shown) [U, 1-[(1,1-dimethylethoxy)carbonyl]-N-[3-[[2-[[(1,1-dimethylethyl)amino]carbonyl]phenyl]thio]-2(R and/or S)-hydroxy-1(R and/or S)-(phenylmethyl)-propyl]octahydroindole-2-carboxamide]", "values": [{"measurement": "IC50", "value": 38, "unit": "µM"}]}
